According to the CheMixHub viscosity set:

Assay: xn = mol fraction of the nth substance listed

CC(=O)N(C)C + CCO
viscosity [mPa·s], 101 kPa
Conditions	298.15 K	303.15 K	308.15 K	313.15 K	318.15 K
x1 = 0.0653	–	0.9549	0.8702	0.8052	0.7371
x1 = 0.0809	–	0.944	–	–	–
x1 = 0.1358	0.9918	0.9129	0.8423	0.7795	0.716
x1 = 0.1399	–	0.915	–	–	–
x1 = 0.2001	–	0.894	–	–	–
x1 = 0.2123	0.9588	0.8868	0.8171	0.7631	0.7077
x1 = 0.2626	–	0.878	–	–	–
x1 = 0.2954	0.9368	0.8691	0.8034	0.7509	0.6996
x1 = 0.3738	–	0.865	–	–	–
x1 = 0.386	0.9289	0.8634	0.7995	0.751	0.6999
x1 = 0.4854	0.928	0.8622	0.8019	0.753	0.7022
x1 = 0.4935	–	0.861	–	–	–
x1 = 0.5947	0.9232	0.8595	0.7991	0.7552	0.7034
x1 = 0.5953	–	0.862	–	–	–
x1 = 0.6938	–	0.863	–	–	–
x1 = 0.7155	0.9273	0.8639	0.8093	–	0.7108
x1 = 0.7965	–	0.865	–	–	–
x1 = 0.8498	0.9421	0.8705	0.81	–	0.7156
x1 = 0.8971	–	0.867	–	–	–

CC(N)=O + CCO
303.15 K, 101 kPa
Conditions	viscosity [mPa·s]
x1 = 0.0327	9.42
x1 = 0.0646	10
x1 = 0.0901	10.16
x1 = 0.1011	12.61

CCCCCCCCCO + CCO
viscosity [mPa·s], 101 kPa
Conditions	298.15 K	308.15 K	318.15 K
x2 = 0.05	8.632	6.193	4.473
x2 = 0.1	8.168	5.872	4.273
x2 = 0.15	7.706	5.558	4.073
x2 = 0.2	7.247	5.25	3.874
x2 = 0.25	6.791	4.945	3.675
x2 = 0.3	6.34	4.645	3.475
x2 = 0.35	5.893	4.347	3.275
x2 = 0.4	5.453	4.052	3.074
x2 = 0.45	5.019	3.759	2.871
x2 = 0.5	4.593	3.469	2.668
x2 = 0.55	4.176	3.182	2.465
x2 = 0.6	3.769	2.898	2.261
x2 = 0.65	3.375	2.619	2.059
x2 = 0.7	2.993	2.345	1.858
x2 = 0.75	2.627	2.078	1.66
x2 = 0.8	–	1.818	1.466
x2 = 0.85	1.946	1.569	1.277
x2 = 0.9	1.635	1.331	1.094
x2 = 0.95	1.346	1.108	0.9197

CCCCCCCCCO + CCOC(=O)OCC
101 kPa
Conditions	viscosity [mPa·s]
293.15 K, x1 = 0.008	0.816
293.15 K, x2 = 0.03967	9.964
293.15 K, x2 = 0.1094	7.69
293.15 K, x2 = 0.1857	5.899
293.15 K, x2 = 0.2865	4.28
293.15 K, x2 = 0.4032	3.037
293.15 K, x2 = 0.504	2.306
293.15 K, x2 = 0.5999	1.794
293.15 K, x2 = 0.6927	1.434
293.15 K, x2 = 0.8085	1.112
293.15 K, x2 = 0.8962	0.941
303.15 K, x1 = 0.00855	0.711
303.15 K, x2 = 0.03166	7.163
303.15 K, x2 = 0.1064	5.544
303.15 K, x2 = 0.1908	4.257
303.15 K, x2 = 0.2925	3.17
303.15 K, x2 = 0.4014	2.365
303.15 K, x2 = 0.5113	1.798
303.15 K, x2 = 0.62	1.39
303.15 K, x2 = 0.6981	1.173
303.15 K, x2 = 0.8041	0.949
303.15 K, x2 = 0.893	0.815
313.15 K, x1 = 0.00592	0.625
313.15 K, x2 = 0.06302	4.663
313.15 K, x2 = 0.1089	4.053
313.15 K, x2 = 0.1969	3.156
313.15 K, x2 = 0.301	2.399
313.15 K, x2 = 0.4008	1.879
313.15 K, x2 = 0.5098	1.458
313.15 K, x2 = 0.6011	1.199
313.15 K, x2 = 0.689	1.006
313.15 K, x2 = 0.8072	0.812
313.15 K, x2 = 0.8932	0.711

O=[N+]([O-])c1ccccc1O + CN1CCC[C@H]1c1cccnc1
viscosity [mPa·s], 101.33 kPa
Conditions	308.15 K	323.15 K
x2 = 0.102	–	2.724
x2 = 0.1563	5.072	3.073
x2 = 0.2019	5.996	3.527
x2 = 0.302	7.601	4.122
x2 = 0.3189	7.832	4.24
x2 = 0.3345	8.011	4.344
x2 = 0.3506	8.004	4.389
x2 = 0.3662	7.982	4.388
x2 = 0.4077	7.889	4.362
x2 = 0.5005	7.375	4.12
x2 = 0.603	6.569	3.83
x2 = 0.6988	5.676	3.421
x2 = 0.7988	4.612	2.927
x2 = 0.8937	3.86	2.523

CC(=O)N(C)C + CN(C)C=O
viscosity [mPa·s], 101 kPa
Conditions	298.15 K	308.15 K	318.15 K
x1 = 0.05	0.809	0.718	0.642
x1 = 0.1062	0.816	0.724	0.647
x1 = 0.15	0.822	0.729	0.652
x1 = 0.2171	0.831	0.737	0.658
x1 = 0.26	0.837	0.742	0.662
x1 = 0.3094	0.843	0.747	0.666
x1 = 0.35	0.849	0.752	0.67
x1 = 0.405	0.856	0.758	0.675
x1 = 0.455	0.863	0.763	0.679
x1 = 0.5042	0.87	0.769	0.684
x1 = 0.55	0.876	0.774	0.688
x1 = 0.6071	0.883	0.781	0.694
x1 = 0.655	0.89	0.786	0.698
x1 = 0.714	0.898	0.793	0.704
x1 = 0.75	0.903	0.797	0.707
x1 = 0.7968	0.909	0.803	0.712
x1 = 0.85	0.916	0.809	0.717
x1 = 0.9112	0.925	0.816	0.723
x1 = 0.95	0.93	0.82	0.727

CC1CCCCC1=O (stereo not given) + CN(C)C=O
viscosity [mPa·s], 100 kPa
Conditions	x1 = 0.0825	x1 = 0.1712	x1 = 0.2787	x1 = 0.3863	x1 = 0.4889	x1 = 0.5801	x1 = 0.6819	x1 = 0.7805	x1 = 0.8801
303.15 K	0.889	1.027	1.192	1.353	1.505	1.638	1.783	1.921	2.06
308.15 K	0.85	0.987	1.15	1.309	1.459	1.59	1.735	1.872	2.009
313.15 K	0.81	0.948	1.108	1.266	1.413	1.543	1.688	1.824	1.959

CCCCCCCCCO + CN(C)C=O
Conditions	viscosity [mPa·s]
308.15 K, 101.3 kPa, x2 = 0.2201	2.965

CC1CCCCC1=O (stereo not given) + CN(C)c1ccccc1
viscosity [mPa·s], 101 kPa
Conditions	303.15 K	308.15 K
x2 = 0.0798	2.088	2.021
x2 = 0.1302	2.007	1.934
x2 = 0.2014	1.899	1.82
x2 = 0.2705	1.801	1.718
x2 = 0.3456	1.704	1.618
x2 = 0.4121	1.625	1.536
x2 = 0.4952	1.536	1.446
x2 = 0.5625	1.471	1.379
x2 = 0.6325	1.41	1.318
x2 = 0.7025	1.355	1.264
x2 = 0.7652	1.31	1.221
x2 = 0.8312	1.268	1.183
x2 = 0.9025	1.226	1.148

CC1CCCCC1=O (stereo not given) + CNC=O
viscosity [mPa·s], 100 kPa
Conditions	x1 = 0.0925	x1 = 0.1835	x1 = 0.2805	x1 = 0.3919	x1 = 0.4985	x1 = 0.5995	x1 = 0.6901	x1 = 0.7921	x1 = 0.8995
303.15 K	1.655	1.722	1.79	1.865	1.934	1.997	2.052	2.111	2.171
308.15 K	1.541	1.614	1.689	1.771	1.847	1.917	1.978	2.045	2.111
313.15 K	1.439	1.518	1.597	1.684	1.766	1.842	1.909	1.982	2.053
